Source: patent US9708336B2, “Metallo-beta-lactamase inhibitors” (priority 2014, dated 2017)
Where two headings read alike, the source gives them in different places.

What was measured:
[1] = test system: Klebsiella pneumoniae expressing VIM-1 (IHMA599644); test: Antibiotic potentiation activity: synergistic concentration (MITC95) with imipenem, OD600 growth; assay type: cell-based; details: for Klebsiella pneumoniae expressing VIM-1 (IHMA 599644) MITC95: concentration giving 95% inhibition of bacterial growth
Description: (§1) Antibiotic Potentiation Activity: Determination of Synergistic Concentration
(§2) The bacterial strains tested included the clinical strains Escherichia coli expressing NDM-1 (CLB30005, CLB30016), Serratia marcescens expressing IMP-1 (CL5741), and Klebsiella pneumoniae expressing VIM-1 (IHMA599644) Inhibitor activity was measured in the presence and absence of imipenem in a 384-well microplate.
(§3) The clinical strains CLB30016, CL5741 and IHMA599644 were grown on trypticase soy agar containing 5% sheep's blood. The clinical strain CLB30005 was grown on Mueller Hinton broth agar containing 8 ug/ml imipenem. The bacteria on agar plates were incubated at 35° C. with humidity overnight. The following day, individual colonies from each clinical strain were picked and resuspended in 5 ml saline to attain an OD600 of 0.14, 0.11, 0.15 and 0.13, for CLB30005, CLB30016, CL5741 and IHMA599644, respectively. These were further diluted 1:100 into 1.1×CAMHB and used to inoculate the test wells as described below.
(§4) Imipenem in 10 mM 3-(N-morpholino)propanesulfonic acid (MOPS, pH 7) was stored in single use aliquots at −80° C. […] On the day of the assay, 4 μl of antibiotic was added to 45 ul of bacteria followed by 1 μl of test compound and mixed by pipetting and with an orbital shaker. The concentration of antibiotic used in the assay was 4 μg/ml, or optionally 1 μg/ml. Microplates were covered and incubated at 35° C. for 22 hours to 24 hours. At the end of the incubation, absorbance was determined using a spectrophotometer.

[2] = test system: Escherichia coli expressing NDM-1 (CLB30016); test: as above; assay type: cell-based; details: for Escherichia coli expressing NDM-1 (CLB 30016) MITC95: concentration giving 95% inhibition of bacterial growth
Description: as §1, §2, §3, §4

[3] = test system: Serratia marcescens expressing IMP-1 (CL5741); test: as above; assay type: cell-based; details: for Serratia marcescens expressing IMP-1 (CL5741) MITC95: concentration giving 95% inhibition of bacterial growth
Description: as §1, §2, §3, §4

IMP-1 = IMP-1 (Serratia marcescens, UniProt P52699); test: biochemical; assay type: biochemical; details: read-out: IMP-1 IC50
IMP-1, sequence (P52699 whole entry, looked up): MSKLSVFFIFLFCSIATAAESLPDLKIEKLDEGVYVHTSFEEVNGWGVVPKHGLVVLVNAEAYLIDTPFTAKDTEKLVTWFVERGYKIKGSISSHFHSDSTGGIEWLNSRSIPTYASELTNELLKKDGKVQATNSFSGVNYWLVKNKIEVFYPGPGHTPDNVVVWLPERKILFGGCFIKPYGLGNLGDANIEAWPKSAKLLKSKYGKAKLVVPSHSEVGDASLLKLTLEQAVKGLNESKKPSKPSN

NDM-1 = NDM-1 (Klebsiella pneumoniae, UniProt C7C422); test: biochemical; assay type: biochemical; details: read-out: NDM-1 IC50
NDM-1, sequence (C7C422 whole entry, looked up, species assumed): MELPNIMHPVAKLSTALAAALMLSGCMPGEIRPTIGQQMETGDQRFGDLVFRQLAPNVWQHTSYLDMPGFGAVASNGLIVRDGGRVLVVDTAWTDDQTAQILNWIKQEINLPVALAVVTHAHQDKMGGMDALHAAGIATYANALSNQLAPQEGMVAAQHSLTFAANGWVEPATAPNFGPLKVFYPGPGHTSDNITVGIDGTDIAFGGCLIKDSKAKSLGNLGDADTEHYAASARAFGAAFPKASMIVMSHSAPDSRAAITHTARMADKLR

[4] = fluorescence assay with CCF2-FA substrate
[5] = Klebsiella pneumoniae expressing VIM-1 (IHMA599644), 95% growth inhibition
[6] = Escherichia coli expressing NDM-1 (CLB30016), 95% growth inhibition
[7] = Serratia marcescens expressing IMP-1 (CL5741), 95% growth inhibition
[8] = IMP-1 enzyme, CCF2-FA fluorescence assay
[9] = NDM-1 enzyme, CCF2-FA fluorescence assay
[10] = IHMA599644 (VIM-1), 95% inhibition of bacterial growth
[11] = CLB30016 (NDM-1), 95% inhibition of bacterial growth
[12] = CL5741 (IMP-1), 95% inhibition of bacterial growth
[13] = Klebsiella pneumoniae IHMA599644 (VIM-1), 95% growth inhibition
[14] = (CLB30016, NDM-1), 95% growth inhibition
[15] = Serratia marcescens CL5741 (IMP-1), 95% growth inhibition
[16] = IMP-1 enzyme, CCF2-FA substrate
[17] = NDM-1 enzyme, CCF2-FA substrate

SMILES: NS(=O)(=O)c1nccc(NCc2ccccc2)c1-c1nnn[nH]1 [Example 235, 4-(benzylamino)-3-(1H-tetrazol-5-yl)pyridine-2-sulfonamide]
- Klebsiella pneumoniae expressing VIM-1 (IHMA 599644) MITC95 [1]: >200 µM
- Escherichia coli expressing NDM-1 (CLB 30016) MITC95 [2]: 12.5 µM
- Serratia marcescens expressing IMP-1 (CL5741) MITC95 [3]: 200 µM
- IC50 (IMP-1; [4]): 3440 nM
- IC50 (NDM-1; [4]): 142 nM

SMILES: NS(=O)(=O)c1c(C(F)(F)F)ccc(-c2ccc3nccn3c2)c1-c1nnn[nH]1 [Example 481, 3-imidazo[1,2-a]pyridin-6-yl-2-(1H-tetrazol-5-yl)-6-(trifluoromethyl)benzenesulfonamide]
- Klebsiella pneumoniae MITC95 [1, 5]: 1.922 µM
- Escherichia coli MITC95 [2, 6]: 0.125 µM
- Serratia marcescens MITC95 [3, 7]: 0.543 µM
- IC50 (IMP-1; [8]): 7.11 nM
- IC50 (NDM-1; [9]): 1.46 nM

SMILES: CC(C(=O)O)N(C)Cc1ccc(-c2cccc(S(N)(=O)=O)c2-c2nnn[nH]2)cc1 (centres unmarked) [Example 367, N-methyl-N-{[3′-sulfamoyl-2′-(1H-tetrazol-5-yl)biphenyl-4-yl]methyl}alanine]
- Klebsiella pneumoniae MITC95 [1, 5]: 200 µM
- Escherichia coli MITC95 [2, 6]: 3.125 µM
- Serratia marcescens MITC95 [3, 7]: 3.125 µM
- IC50 (IMP-1; [8]): 60.3 nM
- IC50 (NDM-1; [9]): 7.53 nM

SMILES: NC1CCCC(N2CCC(c3ccc(-c4ccc(C(F)(F)F)c(S(N)(=O)=O)c4-c4nnn[nH]4)cc3)CC2)C1 (centres unmarked) [Example 798, 4′-[1-(3-aminocyclohexyl)piperidin-4-yl]-2-(1H-tetrazol-5-yl)-4-(trifluoromethyl)biphenyl-3-sulfonamide]
- Klebsiella pneumoniae MITC95 [1, 10]: 25 µM
- Escherichia coli MITC95 [2, 11]: 1.563 µM
- Serratia marcescens MITC95 [3, 12]: 3.125 µM
- IC50 (IMP-1; [4]): 2.35 nM
- IC50 (NDM-1; [4]): 6.05 nM

SMILES: NS(=O)(=O)c1cccc(CCc2cccnc2)c1-c1nnn[nH]1 [Example 143, 3-(2-pyridin-3-ylethyl)-2-(1H-tetrazol-5-yl)benzenesulfonamide]
- Klebsiella pneumoniae expressing VIM-1 (IHMA 599644) MITC95 [1]: 200 µM
- Escherichia coli expressing NDM-1 (CLB 30016) MITC95 [2]: 0.7813 µM
- Serratia marcescens expressing IMP-1 (CL5741) MITC95 [3]: 4.688 µM
- IC50 (IMP-1; [4]): 98.5 nM
- IC50 (NDM-1; [4]): 20.7 nM

SMILES: NS(=O)(=O)c1c(C(F)(F)F)ccc(N2CCN3C(=O)OCC3C2)c1-c1nnn[nH]1 (centres unmarked) [Example 667, 3-(3-oxotetrahydro[1,3]oxazolo[3,4-a]pyrazin-7(1H)-yl)-2-(1H-tetrazol-5-yl)-6-(trifluoromethyl)benzenesulfonamide]
- Klebsiella pneumoniae MITC95 [1, 13]: 9.375 µM
- Escherichia coli MITC95 [2, 14]: 3.125 µM
- Serratia marcescens MITC95 [3, 15]: 2.344 µM
- IC50 (IMP-1; [16]): 75 nM
- IC50 (NDM-1; [17]): 19.7 nM

SMILES: NC1CCCC1N1CCC(c2ccc(-c3ccc(C(F)(F)F)c(S(N)(=O)=O)c3-c3nnn[nH]3)cc2)CC1 (centres unmarked) [Example 791, 4′-[1-(2-aminocyclopentyl)piperidin-4-yl]-2-(1H-tetrazol-5-yl)-4-(trifluoromethyl)biphenyl-3-sulfonamide]
- Klebsiella pneumoniae MITC95 [1, 10]: 50 µM
- Escherichia coli MITC95 [2, 11]: 0.7813 µM
- Serratia marcescens MITC95 [3, 12]: 1.563 µM
- IC50 (IMP-1; [4]): 1.2 nM
- IC50 (NDM-1; [4]): 6.26 nM

SMILES: NS(=O)(=O)c1c(C(F)(F)F)ccc(-c2ccc3nccn3c2)c1-c1nnn[nH]1 [Example 484, 3-(Imidazo[1,2-a]pyridin-6-yl)-2-(1H-tetrazol-5-yl)-6-(trifluoromethyl)benzenesulfonamide]
- Klebsiella pneumoniae MITC95 [1, 5]: 1.708 µM
- Escherichia coli MITC95 [2, 6]: 0.25 µM
- Serratia marcescens MITC95 [3, 7]: 0.3828 µM
- IC50 (IMP-1; [8]): 6.58 nM
- IC50 (NDM-1; [9]): 1.22 nM

SMILES: NS(=O)(=O)c1cccc(-c2nc(-c3ccncc3)cs2)c1-c1nnn[nH]1 [Example 407, 3-[4-(4-pyridyl)thiazol-2-yl]-2-(1H-tetrazol-5-yl)benzenesulfonamide]
- Klebsiella pneumoniae MITC95 [1, 5]: >200 µM
- Escherichia coli MITC95 [2, 6]: 3.125 µM
- Serratia marcescens MITC95 [3, 7]: 3.125 µM
- IC50 (IMP-1; [8]): 115 nM
- IC50 (NDM-1; [9]): 25.8 nM

SMILES: CN1[C@@H]2CC[C@H]1CC(NCc1ccc(-c3cccc(S(N)(=O)=O)c3-c3nnn[nH]3)cc1)C2 (stereo partly drawn) [Example 366, 4′-({[(3-endo)-8-methyl-8-azabicyclo[3.2.1]oct-3-yl]amino}methyl)-2-(1H-tetrazol-5-yl)biphenyl-3-sulfonamide]
- Klebsiella pneumoniae MITC95 [1, 5]: 150 µM
- Escherichia coli MITC95 [2, 6]: 1.172 µM
- Serratia marcescens MITC95 [3, 7]: 3.125 µM
- IC50 (IMP-1; [8]): 257 nM
- IC50 (NDM-1; [9]): 18.2 nM

SMILES: Nc1nc2cncc(-c3ccc(C(F)(F)F)c(S(N)(=O)=O)c3-c3nnn[nH]3)c2[nH]1 [Example 571, 3-(2-amino-1H-imidazo[4,5-c]pyridin-7-yl)-2-(1H-tetrazol-5-yl)-6-(trifluoromethyl)benzenesulfonamide]
- Klebsiella pneumoniae MITC95 [1, 13]: 6.25 µM
- Escherichia coli MITC95 [2, 14]: 0.7813 µM
- Serratia marcescens MITC95 [3, 15]: 3.125 µM
- IC50 (IMP-1; [16]): 14.8 nM
- IC50 (NDM-1; [17]): 1.71 nM

SMILES: NS(=O)(=O)c1c(C(F)(F)F)ccc(-c2ccc(C3CN(CC4CCNCC4)C3)cc2)c1-c1nnn[nH]1 [Example 804, 4′-[1-(piperidin-4-ylmethyl)azetidin-3-yl]-2-(1H-tetrazol-5-yl)-4-(trifluoromethyl)biphenyl-3-sulfonamide]
- Klebsiella pneumoniae MITC95 [1, 10]: 50 µM
- Escherichia coli MITC95 [2, 11]: 3.125 µM
- Serratia marcescens MITC95 [3, 12]: 6.25 µM
- IC50 (IMP-1; [4]): 5.78 nM
- IC50 (NDM-1; [4]): 3.85 nM

SMILES: NS(=O)(=O)c1c(C(F)(F)F)ccc(-c2ccc(C3CCNCC3)cc2)c1-c1nn[nH]n1 [Example 269, 4′-(piperidin-4-yl)-2-(2H-tetrazol-5-yl)-4-(trifluoromethyl)-[1,1′-biphenyl]-3-sulfonamide]
- Klebsiella pneumoniae MITC95 [1, 5]: 1.969 µM
- Escherichia coli MITC95 [2, 6]: 0.7383 µM
- Serratia marcescens MITC95 [3, 7]: 0.3125 µM
- IC50 (IMP-1; [8]): 1.43 nM
- IC50 (NDM-1; [9]): 1.21 nM

SMILES: CN1CCN(c2cc(-c3cccc(S(N)(=O)=O)c3-c3nnn[nH]3)ccn2)CC1 [Example 116, 3-(2-(4-methylpiperazin-1-yl)pyridin-4-yl)-2-(1H-tetrazol-5-yl)benzenesulfonamide]
- Klebsiella pneumoniae expressing VIM-1 (IHMA 599644) MITC95 [1]: 200 µM
- Escherichia coli expressing NDM-1 (CLB 30016) MITC95 [2]: 1.563 µM
- Serratia marcescens expressing IMP-1 (CL5741) MITC95 [3]: 9.375 µM
- IC50 (IMP-1; [4]): 226 nM
- IC50 (NDM-1; [4]): 5.43 nM

SMILES: NS(=O)(=O)c1cccc(-c2ccc(NC3CCNC3)nc2)c1-c1nnn[nH]1 (centres unmarked) [Example 628, 3-[6-(pyrrolidin-3-ylamino)-3-pyridyl]-2-(1H-tetrazol-5-yl)benzenesulfonamide]
- Klebsiella pneumoniae MITC95 [1, 13]: 12.5 µM
- Escherichia coli MITC95 [2, 14]: 0.9766 µM
- Serratia marcescens MITC95 [3, 15]: 12.5 µM
- IC50 (IMP-1; [16]): 650 nM
- IC50 (NDM-1; [17]): 45 nM

SMILES: CN1C2CCC1CC(NCc1ccc(-c3cccc(S(N)(=O)=O)c3-c3nnn[nH]3)cc1)C2 (centres unmarked) [Example 370, 4′-{[(8-methyl-8-azabicyclo[3.2.1]oct-3-yl)amino]methyl}-2-(1H-tetrazol-5-yl)biphenyl-3-sulfonamide]
- Klebsiella pneumoniae MITC95 [1, 5]: 200 µM
- Escherichia coli MITC95 [2, 6]: 1.563 µM
- Serratia marcescens MITC95 [3, 7]: 1.563 µM
- IC50 (IMP-1; [8]): 45.8 nM
- IC50 (NDM-1; [9]): 7.35 nM

SMILES: NC1CCN(C2CCN(c3ccc(C(F)(F)F)c(S(N)(=O)=O)c3-c3nnn[nH]3)CC2)C1 (centres unmarked) [Example 768, 3-[4-(3-aminopyrrolidin-1-yl)piperidin-1-yl]-2-(1H-tetrazol-5-yl)-6-(trifluoromethyl) benzenesulfonamide]
- Klebsiella pneumoniae MITC95 [1, 10]: 3.125 µM
- Escherichia coli MITC95 [2, 11]: 12.5 µM
- Serratia marcescens MITC95 [3, 12]: 6.25 µM
- IC50 (IMP-1; [4]): 36.7 nM
- IC50 (NDM-1; [4]): 24.6 nM

SMILES: NS(=O)(=O)c1cccc(-c2ccc3nonc3c2)c1-c1nnn[nH]1 [Example 130, 3-(benzo[c][1,2,5]oxadiazol-5-yl)-2-(1H-tetrazol-5-yl)benzenesulfonamide]
- Klebsiella pneumoniae expressing VIM-1 (IHMA 599644) MITC95 [1]: 37.5 µM
- Escherichia coli expressing NDM-1 (CLB 30016) MITC95 [2]: 1.172 µM
- Serratia marcescens expressing IMP-1 (CL5741) MITC95 [3]: 9.375 µM
- IC50 (IMP-1; [4]): 267 nM
- IC50 (NDM-1; [4]): 10.6 nM

SMILES: NS(=O)(=O)c1c(CC2CCNCC2)ccc(-c2ccc(C3CCNC3)cc2)c1-c1nn[nH]n1 (centres unmarked) [Example 588, 4-(piperidin-4-ylmethyl)-4′-(pyrrolidin-3-yl)-2-(2H-tetrazol-5-yl)-[1,1′-biphenyl]-3-sulfonamide]
- Klebsiella pneumoniae MITC95 [1, 13]: 1.563 µM
- Escherichia coli MITC95 [2, 14]: 1.563 µM
- Serratia marcescens MITC95 [3, 15]: 3.125 µM
- IC50 (IMP-1; [16]): 28.8 nM
- IC50 (NDM-1; [17]): 6.27 nM
